These results are taken from US10392348B2, “2-oxo-3,4-dihydroquinoline compounds as plant growth regulators” (Syngenta Participations AG, priority 2015, dated 2019).

Where two headings read alike, the source gives them in different places.

In data set [1] the test system is corn plants (variety NK OCTET). Briefly: Reduced plant water use in corn (foliar spray, repeated weighing of pots). It counts as in vivo. The settings on record: Zea mays, corn plants sprayed at 500 μM, average of 6 pots. As to the method:
Compounds were tested for their effect on reducing plant water use as follows. The compounds were applied by foliar spray to 12 day old corn plants (variety NK OCTET) grown in controlled environment plant growth chambers. All compounds were applied using an emulsifiable concentrate (EC) formulation that was diluted to the desired concentrations with water containing 0.4% of the adjuvant rape seed methyl ester. Plant water use during the day was assessed by repeated weighing of the pots in which the plants were grown before and after application of the compounds at the indicated times (expressed in days after application (DAA)). The water use data before application was used to correct any differences in water use arising due to non-treatment effects (e.g. due to differences in plant size). The untransformed water use values were subjected to an analysis of covariance, fitting the effect of treatment and using the baseline water use 1 day before application as a covariate. Application of the chemicals (0 DAA) takes place approximately between 08:00 and 09:30 a.m. WU is measured within day time (chamber light is on 06:00 to 20:00) at these timepoints: 0 DAA a.m. (10:30-12:50), 0 DAA p.m. (14:00-19:50), 1 DAA a.m. (07:30-12:50), 1 DAA p.m. (14:00-19:50), 2 DAA a.m. (07:30-12:50) and 2 DAA p.m. (14:00-19:50). The cumulative total WU (0-2.5 DAA) is calculated by summing the WU data mentioned above.

The subject of data set [2] is soybean plants (variety S20-G7). Briefly: Reduced plant water use in soybean (foliar spray, repeated weighing of pots). It counts as in vivo. Conditions: Glycine max, foliar, Table B1, sprayed at 500 μM, vs negative control. How it is done: Compounds were tested for their effect on reducing plant water use as follows. Each compound was dissolved in a blank emulsifiable concentrate (EC) formulation that was then diluted to the desired concentration with water containing additional surfactant (EXTRAVON 1 g/20 L). The compounds were applied by foliar spray to 12 day old soybean plants (variety S20-G7) grown in controlled environment plant growth chambers. Plant water use during the day was assessed by repeated weighing of the pots in which the plants were grown before and after application of the compounds at the indicated times (expressed in days after application (DAA)). The water use data before application was used to correct any differences in water use arising due to non-treatment effects (e.g. due to differences in plant size). The untransformed water use values were subjected to an analysis of covariance, fitting the effect of treatment and using the baseline water use 1 day before application as a covariate.
The results are expressed compared to negative control treatment (diluted EC formulation without active ingredient but with EXTRAVON 1 g/20 L).
Application of the chemicals (0 DAA) takes place approximately between 08:00 and 09:30 a.m. WU is measured within day time (chamber light is on 06:00 to 20:00) at these timepoints: 0 DAA a.m. (10:30-12:50), 0 DAA p.m. (14:00-19:50), 1 DAA a.m. (7:30-12:50), 1 DAA p.m. (14:00-19:50), 2 DAA a.m. (07:30-12:50) and 2 DAA p.m. (14:00-19:50). The cumulative total WU (0-2.5 DAA) is calculated by summing the WU data mentioned above.

Setting [3] is: 0 h, water use during day time vs negative control, 0 DAA a.m. (10:30-12:50), read-out: % WU 0 DAA AM.
[4] abbreviates: 0 h, water use during day time vs negative control, 0 DAA p.m. (14:00-19:50), read-out: % WU 0DAA PM.
[5] abbreviates: 24 h, water use during day time vs negative control, 1 DAA a.m. (07:30-12:50), read-out: % WU 1DAA AM.
The mark [6] stands for this setting: 24 h, water use during day time vs negative control, 1 DAA p.m. (14:00-19:50), read-out: % WU 1DAA PM.
Where [7] appears, read: 48 h, water use during day time vs negative control, 2 DAA a.m. (07:30-12:50), read-out: % WU 2 DAA AM.
Setting [8] is: 48 h, water use during day time vs negative control, 2 DAA p.m. (14:00-19:50), read-out: % WU 2 DAA PM.
Where [9] appears, read: 60 h, cumulative total water use 0-2.5 DAA (sum of the time points) vs negative control, read-out: % WU Total 0 to 2.5 DAA.
[10] abbreviates: 0 h, 0 DAA a.m. (10:30-12:50), read-out: % WU 0 DAA AM.
[11] abbreviates: 24 h, 1 DAA a.m. (7:30-12:50), read-out: % WU 1DAA AM.
[12] abbreviates: 24 h, 1 DAA p.m. (14:00-19:50), read-out: % WU 1DAA PM.
Where [13] appears, read: 48 h, 2 DAA a.m. (07:30-12:50), read-out: % WU 2 DAA AM.
[14] abbreviates: 48 h, 2 DAA p.m. (14:00-19:50), read-out: % WU 2 DAA PM.
The mark [15] stands for this setting: 60 h, cumulative total WU (0-2.5 DAA), read-out: % WU Total 0 to 2.5 DAA.

For orientation: melting point means the temperature of the solid-liquid transition. As for `CCCN1C(=O)CCc2cc(CNS(=O)(=O)c3ccc(C)cc3C)ccc21`, the melting point was 166 to 167 °C.
On to `CCN1C(=O)CCc2cc(CNS(=O)(=O)c3ccccc3C)ccc21` [Compound 2.011, N-[(1-ethyl-2-oxo-3,4-dihydroquinolin-6-yl)methyl]-2-methyl-benzenesulfonamide], for which the melting point lay in the range of 203 to 206 °C.
The same measure, in the same setting: the result for `CCN1C(=O)CCc2cc(CNS(=O)(=O)c3ccc(C)cc3)ccc21` [Compound 2.012, N-[(1-ethyl-2-oxo-3,4-dihydroquinolin-6-yl)methyl]-4-methyl-benzenesulfonamide] reads 202 to 203 °C; that for `CCN1C(=O)CCc2cc(CNS(=O)(=O)c3ccccc3Br)ccc21` [Compound 2.017, 2-bromo-N-[(1-ethyl-2-oxo-3,4-dihydroquinolin-6-yl)methyl]benzenesulfonamide], 206 to 207 °C.
The same measure, in the same setting: under `CCN1C(=O)CCc2cc(CNS(=O)(=O)C3CC3)ccc21` [Compound 2.018, N-[(1-ethyl-2-oxo-3,4-dihydroquinolin-6-yl)methyl]cyclopropanesulfonamide] stands 104 to 106 °C; under `CCN1C(=O)CCc2cc(CNS(=O)(=O)/C=C/c3ccc(Br)cc3)ccc21` [Compound 2.052, (E)-2-(4-bromophenyl)-N-[(1-ethyl-2-oxo-3,4-dihydroquinolin-6-yl)methyl]ethenesulfonamide], 119 to 124 °C.
Same read-out and setting: under `CCN1C(=O)CCc2cc(CNS(=O)(=O)/C=C/c3ccc(C)cc3)ccc21` [Compound 2.059, (E)-N-[(1-ethyl-2-oxo-3,4-dihydroquinolin-6-yl)methyl]-2-(p-tolyl)ethenesulfonamide] stands 151 to 153 °C; under `CCN1C(=O)CCc2cc(CNS(=O)(=O)c3cn(C)cn3)ccc21` [Compound 2.063, N-[(1-ethyl-2-oxo-3,4-dihydroquinolin-6-yl)methyl]-1-methyl-imidazole-4-sulfonamide], 165 to 167 °C; under `CCN1C(=O)CCc2cc(CNS(=O)(=O)c3cc(Cl)sc3Cl)ccc21` [Compound 2.064, 2,5-dichloro-N-[(1-ethyl-2-oxo-3,4-dihydroquinolin-6-yl)methyl]thiophene-3-sulfonamide], 198 to 201 °C.
Turning to `CCCN1C(=O)CCc2cc(CNS(=O)(=O)CCCC(F)(F)F)ccc21` [Compound 3.020, 4,4,4-trifluoro-N-[(2-oxo-1-propyl-3,4-dihydroquinolin-6-yl)methyl]butane-1-sulfonamide], the change in vivo at 500 µM in data set [1] (setting [3]) is -19.2%; in data set [1] (setting [4]), -13.7%; in data set [1] (setting [5]) it was -14.8%; in data set [1] (setting [6]) it was -12.1%; in data set [1] (setting [7]), -11.5%; in data set [1] (setting [8]) it was -8.5%. Also, the change in vivo at 500 µM in data set [1] (setting [9]) was -12.7%; in data set [2] (setting [10]), -19.3%; in data set [2] (setting [11]), -10.1%; in data set [2] (setting [12]), -5.5%; in data set [2] (setting [13]), -7.4%; in data set [2] (setting [14]) it was -4.2%. The change in vivo at 500 µM in data set [2] (setting [15]) is -8.5%.
Turning to `CCCN1C(=O)CCc2cc(C3(NS(=O)(=O)c4ccccc4)CC3)ccc21` [Compound 15.001, N-[1-(2-oxo-1-propyl-3,4-dihydroquinolin-6-yl)cyclopropyl]benzenesulfonamide], the change in vivo at 500 µM in data set [1] (setting [3]) was -8.2%; in data set [1] (setting [4]), -6.5%; in data set [1] (setting [5]) it was -6.5%; in data set [1] (setting [6]) it was -3.5%; in data set [1] (setting [7]), -2.8%; in data set [1] (setting [8]), -1.8%. Moreover, the change in vivo at 500 µM was -4.3% in data set [1] (setting [9]); -27.4% in data set [2] (setting [10]); -14.9% in data set [2] (setting [11]); -13.9% in data set [2] (setting [12]); -9.5% in data set [2] (setting [13]); -7.2% in data set [2] (setting [14]). Further, in data set [2] (setting [15]), the change in vivo at 500 µM is -15.1%.
Regarding `CCCN1C(=O)CCc2cc(C3(NS(=O)(=O)c4ccc(F)cc4F)CC3)ccc21` [Compound 15.006, 2,4-difluoro-N-[1-(2-oxo-1-propyl-3,4-dihydroquinolin-6-yl)cyclopropyl]benzenesulfonamide], the change in vivo at 500 µM in data set [1] (setting [3]) was -10.2%; in data set [1] (setting [4]), -3%; in data set [1] (setting [5]) it was -1.4%; in data set [1] (setting [6]), 0.1%; in data set [1] (setting [7]), 1.7%; in data set [1] (setting [8]), 1.1%. Moreover, the change in vivo at 500 µM was -1.2% in data set [1] (setting [9]); -32.6% in data set [2] (setting [10]); -23.6% in data set [2] (setting [11]); -24.4% in data set [2] (setting [12]); -17% in data set [2] (setting [13]); -17.8% in data set [2] (setting [14]). Further, in data set [2] (setting [15]), the change in vivo at 500 µM was -23.8%.
As to `CCN1C(=O)CC(C)c2cc(CNS(=O)(=O)c3ccccc3)ccc21` (centres unmarked) [Compound 20.001, N-[(1-ethyl-4-methyl-2-oxo-3,4-dihydroquinolin-6-yl)methyl]benzenesulfonamide], the change in vivo at 500 µM is -21.7% in data set [1] (setting [3]); -18.3% in data set [1] (setting [4]); -19.2% in data set [1] (setting [5]); -10.3% in data set [1] (setting [6]); -8.1% in data set [1] (setting [7]); -5.5% in data set [1] (setting [8]). The change in vivo at 500 µM in data set [1] (setting [9]) was -12.9%; in data set [2] (setting [10]), -50.1%; in data set [2] (setting [11]), -58.5%; in data set [2] (setting [12]), -55.2%; in data set [2] (setting [13]), -55.8%; in data set [2] (setting [14]) it was -50.5%. Besides, the change in vivo at 500 µM in data set [2] (setting [15]) was -54.4%.
Consider `CCN1C(=O)CC(C)c2cc(CNS(=O)(=O)c3ccc(F)cc3F)ccc21` (centres unmarked) [Compound 20.006, N-[(1-ethyl-4-methyl-2-oxo-3,4-dihydroquinolin-6-yl)methyl]-2,4-difluoro-benzenesulfonamide], for which the change in vivo at 500 µM in data set [1] (setting [3]) was -15.5%; in data set [1] (setting [4]) it was -14.5%; in data set [1] (setting [5]) it was -13.2%; in data set [1] (setting [6]) it was -7%; in data set [1] (setting [7]), -5.7%; in data set [1] (setting [8]), -4.3%. Also, the change in vivo at 500 µM in data set [1] (setting [9]) was -9.4%.
